{"source": "patent US5084453A", "about": "“1-carboxy-1-vinyloxyimino aminothiazole cephalosporin derivatives” (priority 1988, dated 1992)", "key": {"[1]": {"assay": "concentration in blood after subcutaneous administration to mice (paper disk method, Morganella morganii IFO 3843)", "format": "in vivo, mice (ddY, male)", "conditions": "mouse, sc, 20 mg/kg subcutaneous", "experimental": "As a representative example, the compound of Example 15 was administered to mice by means of subcutaneous administration, and the concentration in the blood was measured. […] The test compound was dissolved in a physiological sodium chloride solution to obtain a formulation having a concentration of 2 mg/ml. […] Now, Ceftazidime was used as a comparative compound. Further, the antibacterial activities of the sample diluted by plasma to have an appropriate concentration were measured by the paper disk method using Morganella morganii IFO 3843 as the test bacterium."}, "S. marcescens No. 16-2*": {"system": "S. marcescens No. 16-2*", "assay": "in vitro antibacterial activity, agar plate dilution method", "format": "cell-based", "conditions": "Serratia marcescens; 10^6 CFU/ml; β-Lactamase-producing strain; 37° C., 16 hours; read-out: MIC", "how_it_was_run": "(§1)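 Overnight Mueller Hinton broth cultures were loop-inoculated onto Mueller Hinton agar containing serial antibiotic concentrations. After 16 h at 37 °C, the MIC (μg/ml) was read.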"}, "E. cloacae 963": {"system": "E. cloacae 963", "assay": "in vitro antibacterial activity, agar plate dilution method", "format": "cell-based", "conditions": "Enterobacter cloacae, 963, 16 h", "how_it_was_run": "as §1"}, "Ps. aeruginosa AK 109": {"system": "Ps. aeruginosa AK 109", "assay": "in vitro antibacterial activity, agar plate dilution method", "format": "cell-based", "conditions": "Pseudomonas aeruginosa, AK109; 10^6 CFU/ml; Mueller Hinton agar, 37° C., 16 hours; read-out: MIC", "how_it_was_run": "as §1"}, "Ps. aeruginosa IFO3445": {"system": "Ps. aeruginosa IFO3445", "assay": "in vitro antibacterial activity, agar plate dilution method", "format": "cell-based", "conditions": "Pseudomonas aeruginosa, IFO3445, 16 h", "how_it_was_run": "as §1"}, "Ps. aeruginosa AKR17": {"system": "Ps. aeruginosa AKR17", "assay": "in vitro antibacterial activity, agar plate dilution method", "format": "cell-based", "conditions": "Pseudomonas aeruginosa, AKR17, 16 h", "how_it_was_run": "as §1"}, "E. coli CSH(RE45)*": {"system": "E. coli CSH(RE45)*", "assay": "in vitro antibacterial activity, agar plate dilution method", "format": "cell-based", "conditions": "Escherichia coli; 10^6 CFU/ml; β-Lactamase-producing strain; 37° C., 16 hours; read-out: MIC", "how_it_was_run": "as §1"}, "P. vulgaris HX-19": {"system": "P. vulgaris HX-19", "assay": "in vitro antibacterial activity, agar plate dilution method", "format": "cell-based", "conditions": "Proteus vulgaris, HX19, 16 h", "how_it_was_run": "as §1"}, "E. coli GN5482*": {"system": "E. coli GN5482*", "assay": "in vitro antibacterial activity, agar plate dilution method", "format": "cell-based", "conditions": "Escherichia coli, GN5482, 16 h", "how_it_was_run": "as §1"}, "Ps. cepacia 23": {"system": "Ps. cepacia 23", "assay": "in vitro antibacterial activity, agar plate dilution method", "format": "cell-based", "conditions": "Burkholderia cepacia, 23; 10^6 CFU/ml; Mueller Hinton agar, 37° C., 16 hours; read-out: MIC", "how_it_was_run": "as §1"}, "E. coli CSH2(RK1)*": {"system": "E. coli CSH2(RK1)*", "assay": "in vitro antibacterial activity, agar plate dilution method", "format": "cell-based", "conditions": "Escherichia coli, 16 h", "how_it_was_run": "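Minimum inhibitory concentrations, expressed as μg/ml, come from agar dilution plates of Mueller Hinton medium that carry the antibiotic at various concentrations. A loopful of overnight broth culture is applied to each plate, and the plates are read after 16 hours at 37° C.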"}, "E. coli NIHJ JC2": {"system": "E. coli NIHJ JC2", "assay": "in vitro antibacterial activity, agar plate dilution method", "format": "cell-based", "conditions": "Escherichia coli, NIHJJC2; 10^6 CFU/ml; Mueller Hinton agar, 37° C., 16 hours; read-out: MIC", "how_it_was_run": "as §1"}, "S. aureus 209P NIHJ-JC1": {"system": "S. aureus 209P NIHJ-JC1", "assay": "in vitro antibacterial activity, agar plate dilution method", "format": "cell-based", "conditions": "Staphylococcus aureus; 10^6 CFU/ml; Mueller Hinton agar, 37° C., 16 hours; read-out: MIC", "how_it_was_run": "as §1"}, "M. morganii GN5407*": {"system": "M. morganii GN5407*", "assay": "in vitro antibacterial activity, agar plate dilution method", "format": "cell-based", "conditions": "Morganella morganii, GN5407, 16 h", "how_it_was_run": "as §1"}, "K. oxytoca GN10650*": {"system": "K. oxytoca GN10650*", "assay": "in vitro antibacterial activity, agar plate dilution method", "format": "cell-based", "conditions": "Klebsiella oxytoca, GN10650, 16 h", "how_it_was_run": "as §1"}, "K. pneumoniae No. 42*": {"system": "K. pneumoniae No. 42*", "assay": "in vitro antibacterial activity, agar plate dilution method", "format": "cell-based", "conditions": "Klebsiella pneumoniae, 16 h", "how_it_was_run": "as §1"}, "K. pneumoniae PC1-602": {"system": "K. pneumoniae PC1-602", "assay": "in vitro antibacterial activity, agar plate dilution method", "format": "cell-based", "conditions": "Klebsiella pneumoniae, PC1602; 10^6 CFU/ml; Mueller Hinton agar, 37° C., 16 hours; read-out: MIC", "how_it_was_run": "as §1"}, "E. cloacae Nek 39*": {"system": "E. cloacae Nek 39*", "assay": "in vitro antibacterial activity, agar plate dilution method", "format": "cell-based", "conditions": "Enterobacter cloacae, 16 h", "how_it_was_run": "as §1"}, "P. vulgaris No. 33*": {"system": "P. vulgaris No. 33*", "assay": "in vitro antibacterial activity, agar plate dilution method", "format": "cell-based", "conditions": "Proteus vulgaris; 10^6 CFU/ml; β-Lactamase-producing strain; 37° C., 16 hours; read-out: MIC", "how_it_was_run": "as §1"}, "A. calcoaceticus No. 4": {"system": "A. calcoaceticus No. 4", "assay": "in vitro antibacterial activity, agar plate dilution method", "format": "cell-based", "conditions": "Acinetobacter calcoaceticus, NO.4, 16 h", "how_it_was_run": "as §1"}, "S. marcescens IAM 1184": {"system": "S. marcescens IAM 1184", "assay": "in vitro antibacterial activity, agar plate dilution method", "format": "cell-based", "conditions": "Serratia marcescens, IAM1184, 16 h", "how_it_was_run": "as §1"}}, "data": [{"smiles": "C=C(O/N=C(\\C(=O)N[C@@H]1C(=O)N2C(C(=O)O)=C(CSc3nc(C(=O)O)c(-c4ccc(O)c(O)c4)s3)CS[C@H]12)c1csc(N)n1)C(=O)O", "note": "[Example 15, trisodium 78-[2-(2-aminothiazol-4-yl)-2-(1-carboxylato-1-vinyloxyimino)acetamido]-3-[4-carboxylato-5-(3,4-dihydroxyphenyl)thiazol-2-yl]thiomethyl-3-cephem-4-carboxylate (syn-isomer)]", "values": [{"measurement": "concentration at 0.125 h", "setting": "[1]; 7.5 min", "result": 33800, "unit": "ng/mL"}, {"measurement": "concentration at 0.25 h", "setting": "[1]; 15 min", "result": 45000, "unit": "ng/mL"}, {"measurement": "concentration at 0.5 h", "setting": "[1]; 30 min", "result": 44300, "unit": "ng/mL"}, {"measurement": "concentration at 1 h", "setting": "[1]; 60 min", "result": 21900, "unit": "ng/mL"}, {"measurement": "concentration at 2 h", "setting": "[1]; 120 min", "result": 7100, "unit": "ng/mL"}, {"measurement": "concentration at 4 h", "setting": "[1]; 240 min", "result": 7200, "unit": "ng/mL"}, {"measurement": "MIC", "setting": "S. marcescens No. 16-2*", "result": 0.78, "unit": "µg/mL"}, {"measurement": "MIC", "setting": "E. cloacae 963", "result": 0.05, "unit": "µg/mL"}, {"measurement": "MIC", "setting": "Ps. aeruginosa AK 109", "result": 0.78, "unit": "µg/mL"}, {"measurement": "MIC", "setting": "Ps. aeruginosa IFO3445", "result": 1.56, "unit": "µg/mL"}, {"measurement": "MIC", "setting": "Ps. aeruginosa AKR17", "result": 1.56, "unit": "µg/mL"}, {"measurement": "MIC", "setting": "E. coli CSH(RE45)*", "result": 0.05, "unit": "µg/mL"}, {"measurement": "MIC", "setting": "P. vulgaris HX-19", "result": 0.0125, "unit": "µg/mL"}, {"measurement": "MIC", "setting": "E. coli GN5482*", "result": 0.39, "unit": "µg/mL"}, {"measurement": "MIC", "setting": "Ps. cepacia 23", "result": "< 0.006", "unit": "µg/mL"}, {"measurement": "MIC", "setting": "E. coli CSH2(RK1)*", "result": 0.0125, "unit": "µg/mL"}, {"measurement": "MIC", "setting": "E. coli NIHJ JC2", "result": 0.39, "unit": "µg/mL"}, {"measurement": "MIC", "setting": "S. aureus 209P NIHJ-JC1", "result": 25, "unit": "µg/mL"}, {"measurement": "MIC", "setting": "M. morganii GN5407*", "result": 0.025, "unit": "µg/mL"}, {"measurement": "MIC", "setting": "K. oxytoca GN10650*", "result": 0.1, "unit": "µg/mL"}, {"measurement": "MIC", "setting": "K. pneumoniae No. 42*", "result": 0.1, "unit": "µg/mL"}, {"measurement": "MIC", "setting": "K. pneumoniae PC1-602", "result": "< 0.006", "unit": "µg/mL"}, {"measurement": "MIC", "setting": "E. cloacae Nek 39*", "result": 0.05, "unit": "µg/mL"}, {"measurement": "MIC", "setting": "P. vulgaris No. 33*", "result": "< 0.006", "unit": "µg/mL"}, {"measurement": "MIC", "setting": "A. calcoaceticus No. 4", "result": 0.39, "unit": "µg/mL"}, {"measurement": "MIC", "setting": "S. marcescens IAM 1184", "result": 0.05, "unit": "µg/mL"}]}]}
